Data from US11426361B2, “Eye drops for treatment of irritation not due to infection” (Resdevco Research and Development Co. Ltd., priority 2017, dated 2022).

Test system: human corneal epithelial cells (HCEC cell line)
Test: Example 5: expression of barrier genes (Involucrin, Occludin, Filaggrin, Cadherin-1) at mRNA level by Q-PCR
Format: cell-based
Conditions: three hours
Protocol: An experiment was performed to investigate the effect in vitro of a solution containing glycerol on human corneal epithelial cells, in particular, on the expression of barrier genes Involucrin, Occludin, Filaggrin, and Cadherin-1.
Immortalized human corneal epithelial cells (HCEC cell line) cultured in DMEM/F12 with 5% FBS and 10 ng/ml human epidermal growth factor (Invitrogen—Gibco). The cells were treated for three hours with one of the following three compositions: (a) an aqueous solution of glycerol (0.27% w/v); (b) 20 μg/ml Polyinosinic:polycytidylic acid (p(I:C), an activator of TLR3 to induce inflammation; and (c) a combination of the two previous compositions.
The expression of the barrier genes was determined at the mRNA level by use of quantitative “real-time” PCR (Q-PCR). Q-PCR was performed on an ABI Prism 7000 sequence detection system (Applied Biosystems, Foster City, Calif.) using the 5′ nuclease assay. Total RNA was isolated using TRIzol (Invitrogen) and 3 μg of total RNA were reverse-transcribed into cDNA by using 15 U of AMV reverse transcriptase (Promega, Madison, Wis., USA) and 0.025 μg/μl random primers (Promega). PCR amplification was performed by using the TaqMan primers and probes. As internal controls, transcripts of cyclophilin A (PPIA) were determined.

Compound | effect on barrier-impairing actions of p(I:C) (barrier gene expression) (co-incubation with glycerol 0.27% during p(I:C) 20 μg/ml challenge) | expressions of Involucrin, Occludin, Filaggrin, and Cadherin-1 (p(I:C) 20 μg/ml alone)
OCC(O)CO [glycerol] | significantly prevented the barrier-impairing actions of the TLR3 agonist | 
Polyinosinic:polycytidylic acid [p(I:C)] |  | markedly decreased
